Measured values as given in US8461329B2, “Isoquinoline derivative” (Taisho Pharmaceutical Co., Ltd., priority 2008, dated 2013).
Read-outs that look alike come from different tables or passages of the source.

What was measured:
[1] = target: T1, CRTH2 (KB8 cells) (Homo sapiens, UniProt Q9Y5Y4); experiment: CRTH2 antagonist test (PGD2-induced intracellular calcium ion concentration increase in KB8 cells); assay type: cell-based; details: PGD2 final concentration 100 nM, Fluo-4-AM fluorescence, read-out: antagonist activity (IC50 value, inhibition of calcium ion concentration increase)
T1 construct: host or cells: KB8 cells (human CRTH2 expression cell)
T1 sequence (Q9Y5Y4 1-395): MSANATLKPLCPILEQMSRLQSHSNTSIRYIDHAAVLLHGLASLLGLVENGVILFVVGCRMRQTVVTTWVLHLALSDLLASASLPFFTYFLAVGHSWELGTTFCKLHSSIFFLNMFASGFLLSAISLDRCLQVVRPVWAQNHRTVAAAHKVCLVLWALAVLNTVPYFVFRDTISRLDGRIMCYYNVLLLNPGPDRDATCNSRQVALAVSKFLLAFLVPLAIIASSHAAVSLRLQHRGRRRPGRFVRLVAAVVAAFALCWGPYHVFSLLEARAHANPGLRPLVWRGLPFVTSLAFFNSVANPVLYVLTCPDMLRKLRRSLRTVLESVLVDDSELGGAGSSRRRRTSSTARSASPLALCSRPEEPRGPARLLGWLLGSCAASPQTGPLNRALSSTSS
How it was run: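 Fluo-4-AM-loaded KB8 cells in HBSS with 10 mM HEPES and 1 mM CaCl2 received compound plus PGD2 (final 100 nM); peak fluorescence followed over time. Inhibition was computed against no-compound and unlabelled-PGD2 controls, and IC50 obtained from a dose-response curve.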

[2] = target: T2, human CRTH2 expression cell KB8 (Homo sapiens, UniProt Q9Y5Y4); experiment: CRTH2 binding test (3H-PGD2 binding to KB8 cells); details: 3H-PGD2 5 nM, 4° C., one hour
T2 construct: host or cells: KB8 cells (human CRTH2 expression cell)
T2 sequence (Q9Y5Y4 1-395): T1 sequence (Q9Y5Y4 1-395)
Experimental: CRTH2 binding inhibitory activity of the compound of the present invention was considered by using a binding test between human CRTH2 expression cell KB8 (BML, INC.) and ^3H-labeled prostaglandin D2 (hereinafter, abbreviated as ^3H-PGD2, manufactured by GE Healthcare).
KB8 was suspended in a reaction buffer solution (Hank's balanced salt solution (Invitrogen) containing 10 mM HEPES (Invitrogen)), which was dispensed in a 96 well plate (Coaster) so that 2×10^5 cells/well are placed. Furthermore, the compound of the present invention and ^3H-PGD2 (final concentration: 5 nM) were added, stirred, and incubated at 4° C.
One hour later, cells were collected on GF/C Filter Plate (PerkinElmer) that had been pre-coated with 0.5% polyethyleneimine solution (SIGMA) by using a Cell Harvester (Packard BioScience), and the radioactivity of the cells was measured by using Top count NXT (PerkinElmer) (a value measured herein was represented by a measurement value “a”). The same procedure was carried out in the absence of the compound, and a measurement value “b” was obtained; and the same procedure was carried out in the absence of the compound and in the presence of non-labeled PGD2 (final concentration: 50 μM), a measurement value “c” was obtained.
The binding inhibition rate of the compound was calculated by the following calculation formula: Bonding inhibitory rate(%)=[1−(a−c)/(b−c)]×100
That is to say, by using binding inhibition rates of compounds to be tested having various concentrations, the IC50 value was calculated according to a dose-dependent inhibition curve analyzed by using XLfit (IDBS) as a data analysis software, and the calculated value was defined as an indicator of the inhibitory activity. In Table 9, A denotes an inhibitory activity showing the IC50 value of less than 50 nM; B denotes an inhibitory activity showing the IC50 value of 50 nM or greater and less than 500 nM; C denotes an inhibitory activity showing the IC50 value of 500 nM or greater and less than 1000 nM; and D denotes an inhibitory activity showing the IC50 value of 1000 nM or greater.

[3] = IC50 class, read-out: binding inhibitory activity
[4] = read-out: CRTH2 binding inhibitory activity IC50 value

| IC50 [1] | IC50 [2, 3] | IC50 [2, 4] | Structure (SMILES) |
| --- | --- | --- | --- |
| < 50 nM | < 50 nM |  | O=C(O)Cc1cnc(C(=O)c2ccc(NC(=O)c3ccc(Cl)c(Cl)c3)cc2)c2ccccc12 [Example 2, {1-[(4-{[(3,4-dichlorophenyl)carbonyl]amino}phenyl)carbonyl]isoquinolin-4-yl}acetic acid] |
| 50 to 500 nM | < 50 nM |  | O=C(O)Cc1cnc(C(=O)c2ccc(NC(=O)C3(c4ccc(Cl)c(Cl)c4)CC3)cc2)c2ccccc12 [Example 5] |
| < 50 nM | < 50 nM |  | O=C(O)Cc1cnc(C(=O)c2ccc(NC(=O)c3ccc(OC(F)(F)F)cc3)cc2)c2ccccc12 [Example 8] |
| 50 to 500 nM | < 50 nM |  | O=C(O)Cc1cnc(C(=O)c2ccc(NC(=O)c3ccc(Oc4ccccc4)cc3)cc2)c2ccccc12 [Example 9] |
| < 50 nM | < 50 nM |  | Cc1ccc(C(=O)Nc2ccc(C(=O)c3ncc(CC(=O)O)c4ccccc34)cc2)cc1 [Example 17] |
| < 50 nM | < 50 nM | 3.5 nM | O=C(O)Cc1cnc(C(=O)c2ccc(NC(=O)c3cc4ccccc4[nH]3)cc2)c2ccccc12 [Example 18] |
|  | 50 to 500 nM |  | CC(=O)Nc1ccc(C(=O)c2ncc(CC(=O)O)c3ccccc23)cc1 [Example 19] |
|  | < 50 nM |  | O=C(O)Cc1cnc(C(=O)c2ccc(NC(=O)C3CC3)cc2)c2ccccc12 [Example 20] |
| 50 to 500 nM | < 50 nM |  | O=C(O)Cc1cnc(C(=O)c2ccc(NC(=O)CC3CCCCC3)cc2)c2ccccc12 [Example 21] |
| 50 to 500 nM | < 50 nM |  | O=C(O)Cc1cnc(C(=O)c2ccc(NC(=O)Cc3ccc(-c4ccccc4)cc3)cc2)c2ccccc12 [Example 22] |
| < 50 nM | < 50 nM |  | O=C(O)Cc1cnc(C(=O)c2ccc(NC(=O)COc3ccc(Cl)c(Cl)c3)cc2)c2ccccc12 [Example 23] |
| < 50 nM | < 50 nM |  | O=C(O)Cc1cnc(C(=O)c2ccc(NC(=O)c3ccc(Cl)cc3)cc2)c2ccccc12 [Example 29] |
| < 50 nM | < 50 nM | 3.4 nM | CCCCCc1ccc(C(=O)Nc2ccc(C(=O)c3ncc(CC(=O)O)c4ccccc34)cc2)cc1 [Example 57] |
| < 50 nM | < 50 nM | 2.9 nM | O=C(O)Cc1cnc(C(=O)c2ccc(NC(=O)c3cccc(Br)c3)cc2)c2ccccc12 [Example 75] |
| < 50 nM | < 50 nM | 2.8 nM | O=C(O)Cc1cnc(C(=O)c2ccc(NC(=O)C3CCC(c4ccc(Cl)cc4)CC3)cc2)c2ccccc12 (centres unmarked) [Example 82] |
| < 50 nM | < 50 nM |  | O=C(O)Cc1cnc(C(=O)c2ccc(NC(=O)/C=C/c3ccc(F)cc3)cc2)c2ccccc12 [Example 83] |
| < 50 nM | < 50 nM |  | O=C(O)Cc1cnc(C(=O)c2ccc(NC(=O)c3cc4cc(Cl)ccc4[nH]3)cc2)c2ccccc12 [Example 92] |
| < 50 nM | < 50 nM |  | O=C(O)Cc1cnc(C(=O)c2ccc(NC(=O)Nc3ccc(Cl)c(Cl)c3)cc2)c2ccccc12 [Example 130, {1-[(4-{[(3,4-dichlorophenyl)carbamoyl]amino}phenyl)carbonyl]isoquinolin-4-yl}acetic acid] |
| < 50 nM | < 50 nM |  | O=C(O)Cc1cnc(C(=O)c2ccc(NC(=O)OCc3ccc(Cl)c(Cl)c3)cc2)c2ccccc12 [Example 131, (1-{[4-({[(3,4-dichlorobenzyl)oxy]carbonyl}amino)phenyl]carbonyl}isoquinolin-4-yl)acetic acid] |

Second part, the molecule before the results:

| Structure (SMILES) | IC50 [1] | IC50 [2, 3] | IC50 [2, 4] |
| --- | --- | --- | --- |
| CC(C)(C)OC(=O)Nc1ccc(C(=O)c2ncc(CC(=O)O)c3ccccc23)cc1 [Example 1, [1-({4-[(tert-butoxycarbonyl)amino]phenyl}carbonyl)isoquinolin-4-yl]acetic acid] | 50 to 500 nM | < 50 nM |  |
| O=C(O)Cc1cnc(C(=O)c2ccc(NC(=O)Cc3ccc(Cl)c(Cl)c3)cc2)c2ccccc12 [Example 3] | < 50 nM | < 50 nM |  |
| O=C(O)Cc1cnc(C(=O)c2ccc(NC(=O)CCc3ccc(Cl)c(Cl)c3)cc2)c2ccccc12 [Example 4] | < 50 nM | < 50 nM |  |
| O=C(O)Cc1cnc(C(=O)c2ccc(NC(=O)/C=C/c3ccc(Cl)c(Cl)c3)cc2)c2ccccc12 [Example 6] | < 50 nM | < 50 nM |  |
| COc1ccc(C(=O)Nc2ccc(C(=O)c3ncc(CC(=O)O)c4ccccc34)cc2)cc1 [Example 7] | < 50 nM | < 50 nM |  |
| O=C(O)Cc1cnc(C(=O)c2ccc(NC(=O)c3ccc(-c4ccccc4)cc3)cc2)c2ccccc12 [Example 10] | < 50 nM | < 50 nM |  |
| O=C(O)Cc1cnc(C(=O)c2ccc(NC(=O)c3ccc(C(F)(F)F)cc3)cc2)c2ccccc12 [Example 11] | < 50 nM | < 50 nM |  |
| CN(C)c1ccc(C(=O)Nc2ccc(C(=O)c3ncc(CC(=O)O)c4ccccc34)cc2)cc1 [Example 12] | < 50 nM | < 50 nM |  |
| N#Cc1ccc(C(=O)Nc2ccc(C(=O)c3ncc(CC(=O)O)c4ccccc34)cc2)cc1 [Example 13] | ≥ 1000 nM | < 50 nM |  |
| O=C(O)Cc1cnc(C(=O)c2ccc(NC(=O)c3ccc4ccccc4c3)cc2)c2ccccc12 [Example 14] | < 50 nM | < 50 nM |  |
| O=C(O)Cc1cnc(C(=O)c2ccc(NC(=O)c3ccc([N+](=O)[O-])cc3)cc2)c2ccccc12 [Example 15] | < 50 nM | < 50 nM |  |
| O=C(O)Cc1cnc(C(=O)c2ccc(NC(=O)c3ccccn3)cc2)c2ccccc12 [Example 16] |  | < 50 nM |  |
| O=C(O)Cc1cnc(C(=O)c2ccc(NC(=O)c3cccc(Cl)c3)cc2)c2ccccc12 [Example 27] | < 50 nM | < 50 nM |  |
| O=C(O)Cc1cnc(C(=O)c2ccc(NC(=O)c3ccc(F)c(Cl)c3)cc2)c2ccccc12 [Example 34] | < 50 nM | < 50 nM |  |
| O=C(O)Cc1cnc(C(=O)c2ccc(NC(=O)c3cc4ccccc4o3)cc2)c2ccccc12 [Example 50] | < 50 nM | < 50 nM |  |
| O=C(O)Cc1cnc(C(=O)c2cccc(NC(=O)c3ccc(Cl)c(Cl)c3)c2)c2ccccc12 [Example 127, {1-[(3-{[(3,4-dichlorophenyl)carbonyl]amino}phenyl)carbonyl]isoquinolin-4-yl}acetic acid] |  | 50 to 500 nM |  |
| CN(C(=O)c1ccc(Cl)c(Cl)c1)c1ccc(C(=O)c2ncc(CC(=O)O)c3ccccc23)cc1 [Example 128, {1-[(4-{[(3,4-dichlorophenyl)carbonyl](methyl)amino}phenyl)carbonyl]isoquinolin-4-yl}acetic acid] |  | 50 to 500 nM |  |
| O=C(O)Cc1cnc(C(=O)c2ccc(NS(=O)(=O)c3ccc(Cl)c(Cl)c3)cc2)c2ccccc12 [Example 129, {1-[(4-{[(3,4-dichlorophenyl)sulfonyl]amino}phenyl)carbonyl]isoquinolin-4-yl}acetic acid] |  | 50 to 500 nM |  |
| O=C(O)Cc1cnc(C(=O)c2ccc(Cc3ccccc3)cc2)c2ccccc12 [Example 144, {1-[(4-benzyl phenyl)carbonyl]isoquinolin-4-yl}acetic acid] |  | 50 to 500 nM |  |
| O=C(O)Cc1cnc(Oc2ccc(C(=O)NCCc3ccc(Cl)cc3)cc2)c2ccccc12 [Example 261, [1-(4-{[2-(4-chlorophenyl)ethyl]carbamoyl}phenoxy)isoquinolin-4-yl]acetic acid] | ≥ 1000 nM |  |  |
